According to patent publication US20210047192A1, “DELAYED RELEASE FORMULATION OF NITRIFICATION INHIBITORS” (BASF SE, priority 2018, published 2021):

Assays:
sandy soil = assay: Nitrogen retention in field trials (NH4-nitrogen content of soil); format: in vivo; conditions: incorporation depth 0 cm
Protocol: An area of sandy soil, previously untreated with fertilizer or other agricultural products near the field station Limburgerh of, was treated as follows. Drainage pipes of 20 cm in length and 12 cm diameter were inserted 10 cm deep into the soil. A treatment as indicated in a line of Table 10 was added on top of the soil under which a pipe was buried. At the beginning of the experiment and after three weeks, the pipes were dug out of the soil with its content, the content emptied into a bag and frozen on site. The soil was then analyzed for NH4-nitrogen content in the laboratory according to the following method: Samples were defrosted for 24 h, then sieved through a 5-6 mm mesh sieve. 200 g of the thus homogenized samples were put into 1 L plastic bottles and 600 mL of a […] solution (1% (w/w) K2SO4 in water) were added. The samples were then shaken for 2 h end over end. The solution was filtered to remove the soil and 50 mL of the filtrate retained for analysis in a Continuous Flow Analyzer for NH4-nitrogen content.

[1] = Volatility measurement at 35° C. (weight loss of beakers in oil bath); format: physicochemical; conditions: relative to the initial weight, after 23 hours at 35° C.
Protocol: Five beakers B1-B5 were prepared containing samples as specified in Table 2
(§1) All 5 beakers were mounted in an oil bath such that half of the beakers were immersed. The temperature of the oil bath was set to 35° C. During the heating process, the beakers were periodically taken out of the oil bath, dried, and weighted. The total mass of the beaker with samples was noted and compared to the initial weight of the beakers with samples. The weight loss attributed to Compound A was calculated from the total weight loss of the sample by taking the loading of the respective sample with Compound A into account. A comparison of the weight loss of Compound A, and the whole sample weight loss in the all 5 beakers after 23 hours at 35° C. was shown in the Table 3.

[2] = Volatility measurement at 60° C. (weight loss after 32 hours); format: physicochemical; conditions: relative to the initial weight, after 32 hours at 60° C.
Protocol: as §1
Five beakers B1-B5 were prepared and treated as described in Example-1 with the differences that the oil bath was set to 60° C. and that the weight loss was recorded after 32 hours.

[3] = Volatility measurement at 100° C.; format: physicochemical; conditions: relative to the initial weight, after hours at 100° C.
Protocol: as §1
Five beakers B1-B5 were prepared and treated as described in Example-1 with the differences that the oil bath was set to 100° C. and that the weight loss was recorded after […].

[4] = Volatility measurement at 60° C. with different loading for 24 or 72 hours (beakers B11-B15); format: physicochemical; conditions: relative to the initial weight
Protocol: Five beakers B11-B15 were prepared containing samples as specified in Table 8.
All 5 beakers B11-B15 were mounted in an oil bath such that half of the beakers were immersed. The temperature of the oil bath was set to 60′C. During the heating process, the beakers were periodically taken out of the oil bath, dried, and weighted. The total mass of the beaker with samples was noted and compared to the initial weight of the beakers with samples. The weight loss attributed to Compound A was calculated from the total weight loss of the sample by taking the loading of the respective sample with Compound A into account. A comparison of the weight loss of Compound A, and the whole sample weight loss in the all 5 beakers after 24 and 72 hours at 60° C. was shown in the Table 9.

Total sample weight loss [1] [%]	Weight loss of Compound A [1] [%]	Total sample weight loss [2] [%]	Weight loss of Compound A [2] [%]	Total sample weight loss [3] [%]	Weight loss of Compound A [3] [%]	Total sample weight loss after 24 hours ([4]; 24 hours) [%]	Weight loss of Compound A after 24 hours ([4]; 24 hours) [%]	Total sample weight loss after 72 hours ([4]; 72 hours) [%]	Weight loss of Compound A after 72 hours ([4]; 72 hours) [%]	SMILES	NH4-nitrogen (sandy soil; 3 weeks after application) [kg/ha]	NH4-nitrogen (sandy soil; at time of application) [kg/ha]
–	–	–	–	–	–	–	–	–	–	N.N.O=S(=O)(O)O [Ammonium Sulfate]	8	75
4.22	4.22	37.97	37.97	68.82	68.82	9.02	9.02	26.99	26.99	C#CCOCc1ccc(Cl)cc1 [Compound A, 1-chloro-4-(prop-2-ynoxymethyl)benzene]	–	–
